From patent US8148407B2, “Compounds derived from 5-thioxylose and their use in therapeutics” (Laboratories Fournier S.A., priority 2005, dated 2012) come the findings set out here.

What is called melting point is the temperature, or range, at which the solid turns liquid. Regarding `N#Cc1ccc(-c2cncc(O[C@@H]3SC[C@@H](O)[C@H](O)[C@H]3O)c2)cc1Cl`, the melting point is 202 to 204 °C. Then `O[C@@H]1[C@@H](O)[C@H](Oc2cccnc2-c2ccccc2)SC[C@H]1O` [Example 24, 2-phenyl-3-pyridinyl 5-thio-β-D-xylopyranoside], with 89 to 108 °C. The compound `O[C@@H]1[C@@H](O)[C@H](Oc2cncc(Oc3ccccc3)c2)SC[C@H]1O` [Example 26, 5-phenoxy-3-pyridinyl 5-thio-β-D-xylopyranoside] gave a melting point of 226 °C.

As to `N#Cc1ccc(-c2ccncc2O[C@@H]2SC[C@@H](O)[C@H](O)[C@H]2O)cc1` [Example 28, 4-(4-cyanophenyl)-3-pyridinyl 5-thio-β-D-xylopyranoside], the melting point was 238 °C. As for `O[C@@H]1[C@@H](O)[C@H](Oc2cncc(-c3ccc(N4CCCCC4)cc3)c2)SC[C@H]1O` [Example 48, 5-[4-(1-piperidinyl)phenyl]-3-pyridinyl 5-thio-β-D-xylopyranoside], the melting point was determined as 196 °C. Compound `CN(C)c1ccc(-c2cncc(O[C@@H]3SC[C@@H](O)[C@H](O)[C@H]3O)c2)cc1` [Example 50, 5-[4-(dimethylamino)phenyl]-3-pyridinyl 5-thio-β-D-xylopyranoside] gave a melting point of 240 °C. Compound `Cc1ccc(-c2cncc(O[C@@H]3SC[C@@H](O)[C@H](O)[C@H]3O)c2)cc1` [Example 52, 5-(4-methylphenyl)-3-pyridinyl 5-thio-β-D-xylopyranoside] returned a melting point of 228 °C. Then `N#Cc1cccc(-c2cncc(O[C@@H]3SC[C@@H](O)[C@H](O)[C@H]3O)c2)c1` [Example 55, 5-(3-cyanophenyl)-3-pyridinyl 5-thio-β-D-xylopyranoside], with 172 °C. The compound `O[C@@H]1[C@@H](O)[C@H](Oc2cnccc2-c2ccc(F)cc2)SC[C@H]1O` [Example 57, 4-(4-fluorophenyl)-3-pyridinyl 5-thio-β-D-xylopyranoside] came in with a melting point of 219 °C. Under `N#Cc1cc(-c2cncc(O[C@@H]3SC[C@@H](O)[C@H](O)[C@H]3O)c2)ccc1F` [Example 63, 5-(3-cyano-4-fluorophenyl)-3-pyridinyl 5-thio-β-D-xylopyranoside] stands 197 °C. Then `COc1ccc(-c2cncc(O[C@@H]3SC[C@@H](O)[C@H](O)[C@H]3O)c2)cc1Cl` [Example 65, 5-(3-chloro-4-methoxyphenyl)-3-pyridinyl 5-thio-β-D-xylopyranoside], with 165 °C; and `COc1cccc(-c2cncc(O[C@@H]3SC[C@@H](O)[C@H](O)[C@H]3O)c2)c1` [Example 67, 5-(3-methoxyphenyl)-3-pyridinyl 5-thio-β-D-xylopyranoside], with 200 °C. The compound `CC(C)Oc1ccc(-c2cncc(O[C@@H]3SC[C@@H](O)[C@H](O)[C@H]3O)c2)cc1` [Example 69, 5-[4-(1-methylethoxy)phenyl]-3-pyridinyl 5-thio-β-D-xylopyranoside] displayed a melting point of 158 °C. `COc1ccc(-c2cncc(O[C@@H]3SC[C@@H](O)[C@H](O)[C@H]3O)c2)cc1OC` [Example 71, 5-(3,4-dimethoxyphenyl)-3-pyridinyl 5-thio-β-D-xylopyranoside] yielded a melting point of 211 °C. `O[C@@H]1[C@@H](O)[C@H](Oc2cccnc2-c2ccc(F)cc2)SC[C@H]1O` [Example 73, 2-(4-fluorophenyl)-3-pyridinyl 5-thio-β-D-xylopyranoside] gave a melting point of 110 °C. For `COc1ccc(-c2nccc(C)c2O[C@@H]2SC[C@@H](O)[C@H](O)[C@H]2O)cc1` [Example 75, 2-(4-methoxyphenyl)-4-methyl-3-pyridinyl 5-thio-β-D-xylopyranoside], the melting point is 101 °C. Under `COc1ccc(-c2cc(O[C@@H]3SC[C@@H](O)[C@H](O)[C@H]3O)ccn2)cc1` [Example 77, 2-(4-methoxyphenyl)-4-pyridinyl 5-thio-β-D-xylopyranoside] stands 150 to 154 °C. In the case of `COc1cc(F)c(-c2cncc(O[C@@H]3SC[C@@H](O)[C@H](O)[C@H]3O)c2)c(F)c1` [Example 81, 5-(2,6-difluoro-4-methoxyphenyl)-3-pyridinyl 5-thio-β-D-xylopyranoside], the melting point amounted to 200 °C. The compound `COc1c(C)cc(-c2cncc(O[C@@H]3SC[C@@H](O)[C@H](O)[C@H]3O)c2)cc1C` [Example 83, 5-(3,5-dimethyl-4-methoxyphenyl)-3-pyridinyl 5-thio-β-D-xylopyranoside] registered a melting point of 173 °C. `O[C@@H]1[C@@H](O)[C@H](Oc2cncc(-c3ccc(F)cc3F)c2)SC[C@H]1O` [Example 85, 5-(2,4-difluorophenyl)-3-pyridinyl 5-thio-β-D-xylopyranoside] registered a melting point of 221 °C. `COc1cc(F)ccc1-c1cncc(O[C@@H]2SC[C@@H](O)[C@H](O)[C@H]2O)c1` [Example 87, 5-(4-fluoro-2-methoxyphenyl)-3-pyridinyl 5-thio-β-D-xylopyranoside] returned a melting point of 218 to 228 °C. As to `N#Cc1ccc(-c2cncc(O[C@@H]3SC[C@@H](O)[C@H](O)[C@H]3O)c2)cc1F` [Example 91, 5-(4-cyano-3-fluorophenyl)-3-pyridinyl 5-thio-β-D-xylopyranoside], the melting point is 214 °C. Under `COc1ccc(-c2ccc(O[C@@H]3SC[C@@H](O)[C@H](O)[C@H]3O)cn2)cc1` [Example 93, 6-(4-methoxyphenyl)-3-pyridinyl 5-thio-β-D-xylopyranoside] stands 164 °C; under `OCc1ccc(-c2ccc(O[C@@H]3SC[C@@H](O)[C@H](O)[C@H]3O)cn2)cc1` [Example 95, 6-[4-(hydroxymethyl)phenyl]-3-pyridinyl 5-thio-β-D-xylopyranoside], 215 °C; under `COc1ccc(-c2cncc(O[C@@H]3SC[C@@H](O)[C@H](O)[C@H]3O)c2)c(C)c1` [Example 105, 5-(4-methoxy-2-methylphenyl)-3-pyridinyl 5-thio-β-D-xylopyranoside], 231 °C.

For `Cc1ccc(-c2cncc(O[C@@H]3SC[C@@H](O)[C@H](O)[C@H]3O)c2)cc1F` [Example 107, 5-(3-fluoro-4-methylphenyl)-3-pyridinyl 5-thio-β-D-xylopyranoside], the melting point is 213 °C.

In turn, `Cc1ccc(-c2cncc(O[C@@H]3SC[C@@H](O)[C@H](O)[C@H]3O)c2)cc1C` [Example 109, 5-(3,4-dimethylphenyl)-3-pyridinyl 5-thio-β-D-xylopyranoside] registered a melting point of 184 °C. Then `Cc1ccc(-c2cncc(O[C@@H]3SC[C@@H](O)[C@H](O)[C@H]3O)c2)c(Cl)c1` [Example 111, 5-(2-chloro-4-methylphenyl)-3-pyridinyl 5-thio-β-D-xylopyranoside], with 207 °C; and `COc1ccc(-c2cncc(O[C@@H]3SC[C@@H](O)[C@H](O)[C@H]3O)c2)c(Cl)c1` [Example 113, 5-(2-chloro-4-methoxyphenyl)-3-pyridinyl 5-thio-β-D-xylopyranoside], with 218 °C.

In turn, `CC(=O)O[C@@H]1[C@@H](OC(C)=O)[C@H](OC(C)=O)CS[C@H]1Oc1cncc(S(C)(=O)=O)c1` [Example 114, 5-methylsulfonyl-3-pyridinyl 2,3,4-tri-O-acetyl-5-thio-β-D-xylopyranoside] displayed a melting point of 193 °C. Under `CS(=O)(=O)c1cncc(O[C@@H]2SC[C@@H](O)[C@H](O)[C@H]2O)c1` [Example 115, 5-methylsulfonyl-3-pyridinyl 5-thio-β-D-xylopyranoside] stands 183 °C; under `O=C(NCc1ccccc1)c1ccc(O[C@@H]2SC[C@@H](O)[C@H](O)[C@H]2O)cn1` [Example 117, 6-{[(phenylmethyl)amino]carbonyl}-3-pyridinyl 5-thio-β-D-xylopyranoside], 89 to 91 °C; under `CC(=O)O[C@@H]1[C@@H](OC(C)=O)[C@H](OC(C)=O)CS[C@H]1Oc1cncc(C(C)=O)c1` [Example 118, 5-acetyl-3-pyridinyl 2,3,4-tri-O-acetyl-5-thio-β-D-xylopyranoside], 157 °C.

Turning to `CC(=O)c1cccc(-c2ccc(O[C@@H]3SC[C@@H](O)[C@H](O)[C@H]3O)cn2)c1` [Example 124, 6-(3-acetylphenyl)-3-pyridinyl 5-thio-β-D-xylopyranoside], the melting point was 159 to 163 °C. Then `O[C@@H]1[C@@H](O)[C@H](Oc2ccc(-c3ccc(OC(F)(F)F)cc3)nc2)SC[C@H]1O` [Example 125, 6-[4-(trifluoromethoxy)phenyl]-3-pyridinyl 5-thio-β-D-xylopyranoside], with 184 to 186 °C.

Regarding `O[C@@H]1[C@@H](O)[C@H](Oc2cccnc2-c2ccc(OC(F)(F)F)cc2)SC[C@H]1O` [Example 127, 2-[4-(trifluoromethoxy)phenyl]-3-pyridinyl 5-thio-β-D-xylopyranoside], the melting point fell in the range of 114 to 119 °C. Under `CC(=O)c1cccc(-c2ncccc2O[C@@H]2SC[C@@H](O)[C@H](O)[C@H]2O)c1` [Example 128, 2-(3-acetylphenyl)-3-pyridinyl 5-thio-β-D-xylopyranoside] stands 128 to 133 °C. Then `O[C@@H]1[C@@H](O)[C@H](Oc2ccc(-c3ccc(F)cc3)nc2)SC[C@H]1O` [Example 129, 6-(4-fluorophenyl)-3-pyridinyl 5-thio-β-D-xylopyranoside], with 180 to 183 °C. The compound `O=S(=O)(c1ccccc1)c1cncc(O[C@@H]2SC[C@@H](O)[C@H](O)[C@H]2O)c1` [Example 140, 5-(phenylsulfonyl)-3-pyridinyl 5-thio-β-D-xylopyranoside] had a melting point of 86 °C. Under `O=S(=O)(c1ccc(F)cc1)c1cncc(O[C@@H]2SC[C@@H](O)[C@H](O)[C@H]2O)c1` [Example 142, 5-[(4-fluorophenyl)sulfonyl]-3-pyridinyl 5-thio-β-D-xylopyranoside] stands 93 to 96 °C. For `O[C@@H]1[C@@H](O)[C@H](Oc2cncc(-c3c(F)cc(F)cc3F)c2)SC[C@H]1O` [Example 144, 5-(2,4,6-trifluorophenyl)-3-pyridinyl 5-thio-β-D-xylopyranoside], the melting point was determined as 228 °C.
